Literature values as cited in patent US8791105B2, “Methods for alleviating chronic pain and improving performance of cattle undergoing dehorning or castration” (Kansas State University Research Foundation, priority 2010, dated 2014).

Assays:
[1] = plasma; humans; cited from earlier work
[2] = in vivo; cited from earlier work

Compound | reported minimum effective concentration [1] [µg/mL] | plasma half-life previously reported [2] [min]
1-(aminomethyl) cyclohexane acetic acid [gabapentin] | 2 | –
O=C(O)c1ccccc1O [salicylate] | – | 30
